Data published in article PMC6510372 (Clinical and Translational Science, 2019).
Entries after “also recorded” stand apart in the source; their conditions may differ.

Key:
[1] = molecular target: T1, P-gp (Homo sapiens, UniProt P08183); experiment: Study 006 cohort 2: effect of steady-state tezacaftor/ivacaftor on digoxin; type: in vivo; settings: for CL renal: both, human, urine and plasma, oral
[2] = system: CYP3A; experiment: Study 006 cohort 1: effect of itraconazole; type: in vivo, human; settings: coadministration of itraconazole vs tezacaftor/ivacaftor alone
[3] = system: CYP3A; experiment: Study 770-017: effect of ciprofloxacin; type: in vivo, human; settings: ciprofloxacin 750 mg q12 h with tezacaftor 50 mg q12 h and ivacaftor 150 mg q12 h
[4] = system: CFTR; settings: major circulating metabolites in humans; cited from earlier work
[5] = system: CYP3A; experiment: Study 006 cohort 2: effect of steady-state tezacaftor/ivacaftor on midazolam; type: in vivo, human; settings: midazolam 2.0 mg single dose with/without TEZ 100 mg q.d./IVA 150 mg q12 h, oral, fed, healthy subjects
[6] = system: CYP3A; settings: cited from earlier work
[7] = Steady-state PK of tezacaftor q.d./ivacaftor twice daily in patients with CF; type: in vivo; settings: human, plasma, oral
[8] = cited from earlier work
[9] = cited from earlier work; for Food effect on exposure: fat‐containing food vs fasted state
[10] = system: CYP3A; settings: in vitro; cited from earlier work
[11] = system: permeability glycoprotein (P‐gp) efflux transporter; settings: ref 3 (tezacaftor), ref 6 (ivacaftor); cited from earlier work
[12] = molecular target: T1, P-gp; settings: ivacaftor alone, digoxin as model P‐gp substrate; cited from earlier work
[13] = system: CYP3A; settings: cited from earlier work; remark: listed apart in the source
[14] = system: CYP3A; settings: human hepatocytes and recombinant human CYP; no reference given; cited from earlier work
[15] = digoxin with tezacaftor 100 mg q.d./ivacaftor 150 mg q12 h vs digoxin alone

T1 sequence (P08183 whole entry): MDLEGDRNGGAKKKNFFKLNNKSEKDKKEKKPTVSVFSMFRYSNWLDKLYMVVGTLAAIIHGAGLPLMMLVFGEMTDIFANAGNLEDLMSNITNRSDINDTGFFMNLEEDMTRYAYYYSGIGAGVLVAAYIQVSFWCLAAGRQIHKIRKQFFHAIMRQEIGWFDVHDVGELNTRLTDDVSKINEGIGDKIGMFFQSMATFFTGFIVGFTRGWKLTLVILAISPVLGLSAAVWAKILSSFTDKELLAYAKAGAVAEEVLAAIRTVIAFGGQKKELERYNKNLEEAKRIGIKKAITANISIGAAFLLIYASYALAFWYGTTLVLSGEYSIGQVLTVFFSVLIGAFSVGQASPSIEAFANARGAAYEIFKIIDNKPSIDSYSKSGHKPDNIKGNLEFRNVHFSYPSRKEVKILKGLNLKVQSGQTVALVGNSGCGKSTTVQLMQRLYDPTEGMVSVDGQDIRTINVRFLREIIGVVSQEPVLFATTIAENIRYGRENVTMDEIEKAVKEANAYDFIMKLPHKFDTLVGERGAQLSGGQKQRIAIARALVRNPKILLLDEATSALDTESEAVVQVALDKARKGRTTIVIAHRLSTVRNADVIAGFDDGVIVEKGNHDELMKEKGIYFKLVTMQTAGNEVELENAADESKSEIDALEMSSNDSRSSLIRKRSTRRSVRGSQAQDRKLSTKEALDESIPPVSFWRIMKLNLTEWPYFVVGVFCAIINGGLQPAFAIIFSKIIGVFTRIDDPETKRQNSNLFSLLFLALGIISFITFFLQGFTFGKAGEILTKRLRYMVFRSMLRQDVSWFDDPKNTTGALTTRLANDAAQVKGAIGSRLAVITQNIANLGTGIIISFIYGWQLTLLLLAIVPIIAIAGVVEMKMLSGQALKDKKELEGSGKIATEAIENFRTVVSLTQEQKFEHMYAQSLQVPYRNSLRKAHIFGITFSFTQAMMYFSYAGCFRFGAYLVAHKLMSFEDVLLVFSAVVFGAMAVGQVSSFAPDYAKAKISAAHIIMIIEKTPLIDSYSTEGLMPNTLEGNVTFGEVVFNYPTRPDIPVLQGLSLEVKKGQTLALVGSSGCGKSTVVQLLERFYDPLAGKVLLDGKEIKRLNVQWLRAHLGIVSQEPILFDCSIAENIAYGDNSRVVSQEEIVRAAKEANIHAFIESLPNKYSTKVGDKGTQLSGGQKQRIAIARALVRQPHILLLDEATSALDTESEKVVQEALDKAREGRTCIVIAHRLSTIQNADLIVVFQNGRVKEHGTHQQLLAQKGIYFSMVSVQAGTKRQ

Structure (SMILES): C[C@H]1O[C@@H](O[C@H]2[C@@H](O)C[C@H](O[C@H]3[C@@H](O)C[C@H](O[C@H]4CC[C@@]5(C)[C@H](CC[C@@H]6[C@@H]5C[C@@H](O)[C@]5(C)[C@@H](C7=CC(=O)OC7)CC[C@]65O)C4)O[C@@H]3C)O[C@@H]2C)C[C@H](O)[C@@H]1O [Digoxin, digoxin]
- CL renal [1]: 121 mL/min
- CL renal ([1]; 0.5 mg): 128 mL/min
- Increase of AUC with tezacaftor/ivacaftor [1, 15]: 30%
- Increase of Cmax with tezacaftor/ivacaftor [1, 15]: 32%

Structure (SMILES): CC(C)(C)c1cc(C(C)(C)CO)c(O)cc1NC(=O)c1c[nH]c2ccccc2c1=O [M1‐IVA]
- Increase of AUC with itraconazole [2]: 3.6 fold
- Increase of Cmax (GLSM ratio) with itraconazole [2]: 1.8 fold
- GLSM ratio range for AUC and Cmax with/without ciprofloxacin [3]: 0.96−1.10
- Pharmacological activity/potency relative to parent [4]: approximately one sixth the potency of ivacaftor

Structure (SMILES): CC1(C)c2cc3cc(NC(=O)C4(c5ccc6c(c5)OC(F)(F)O6)CC4)c(F)cc3n2CC(CO)OC1O (centres unmarked) [M1‐TEZ]
- Decrease of AUC with itraconazole [2]: ~ 40%
- Decrease of Cmax with itraconazole [2]: ~ 40%
- GLSM ratio range for AUC and Cmax with/without ciprofloxacin [3]: 1.17–1.25

Structure (SMILES): CC(C)(C)c1cc(C(C)(C)C(=O)O)c(O)cc1NC(=O)c1c[nH]c2ccccc2c1=O [M6‐IVA]
- Decrease of AUC with itraconazole [2]: 30%
- GLSM ratio range for AUC and Cmax with/without ciprofloxacin [3]: 0.96−1.10
- Pharmacological activity/potency relative to parent [4]: not considered pharmacologically active

Structure (SMILES): Cc1ncc2n1-c1ccc(Cl)cc1C(c1ccccc1F)=NC2 [Midazolam, midazolam]
- Effect of TEZ/IVA on PK [5]: ↔
- GLSM ratio (90% CI) with/without TEZ/IVA, AUC [5]: 1.12 (1.01–1.25)
- GLSM ratio (90% CI) with/without TEZ/IVA, Cmax [5]: 1.13 (1.01–1.25)
- Increase of exposure with ivacaftor alone ([6]; midazolam coadministered with ivacaftor alone): 50%

Structure (SMILES): CC(C)(C)c1cc(C(C)(C)C)c(NC(=O)c2c[nH]c3ccccc3c2=O)cc1O [ivacaftor]
- Increase of AUC with itraconazole [2]: 15.6 fold
- Increase of Cmax (GLSM ratio) with itraconazole [2]: 8.6 fold
- half-life [7]: 0.388 days
- Eliminated in the feces after metabolic conversion ([8]; oral ivacaftor): 87.8%
- Urinary excretion as unchanged drug ([8]; oral ivacaftor): negligible
- Total radioactivity recovered in the urine ([8]; oral ivacaftor, ivacaftor and its metabolites): 6.6%
- Food effect on exposure [9]: increased threefold
- Potential for causing DDIs via CYP3A inhibition or induction [10]: low potential
- P‐gp inhibition in vitro [11]: P‐gp inhibitor in vitro
- CYP3A inhibition, clinical data ([6]; ivacaftor alone): weak inhibitor of CYP3A
- P‐gp inhibition, clinical study [12]: weak inhibitor of P‐gp; also recorded: mild P‐gp inhibitor
- Decrease in exposure with lumacaftor ([13]; ivacaftor administered with lumacaftor): ~ 80%
- Metabolic pathway in vitro [14]: primarily metabolized via CYP3A‐mediated oxidation

Structure (SMILES): Cc1ccc(NC(=O)C2(c3ccc4c(c3)OC(F)(F)O4)CC2)nc1-c1cccc(C(=O)O)c1 [lumacaftor, reference compound]
- CYP3A induction [13]: strong inducer of CYP3A

Structure (SMILES): CC(C)(CO)c1cc2cc(NC(=O)C3(c4ccc5c(c4)OC(F)(F)O5)CC3)c(F)cc2n1C[C@@H](O)CO [tezacaftor]
- Increase of AUC with itraconazole [2]: 4 fold
- Increase of Cmax (GLSM ratio) with itraconazole [2]: 2.8 fold
- half-life [7]: ~6.5 days
- Administered dose excreted in urine as unchanged drug ([8]; oral 14C‐tezacaftor): Less than 1%
- Dose recovered in urine ([8]; oral 14C‐tezacaftor, mostly as the M2 metabolite): about 14%
- Dose excreted in the feces ([8]; oral 14C‐tezacaftor, unchanged or as the M2 metabolite): 72%
- Mean overall recovery ([8]; oral 14C‐tezacaftor, up to 21 days after the dose): 86%
- Dose proportionality of exposure ([9]; doses ranging from 10−300 mg): approximately dose‐proportional
- Food effect on exposure [9]: no food effect
- Potential for causing DDIs via CYP3A inhibition or induction [10]: low potential
- P‐gp inhibition in vitro [11]: not an inhibitor
- Metabolic pathway in vitro [14]: primarily metabolized via CYP3A‐mediated oxidation; also recorded: direct glucuronidation as a minor metabolic pathway
